Test results from US20230212163A1, “2-(HET)ARYL-SUBSTITUTED CONDENSED HETEROCYCLIC DERIVATIVES AS PEST CONTROL AGENTS” (Bayer Aktiengesellschaft, priority 2020, published 2023).

What was measured:
Assay type in all cases: in vivo
Diabrotica balteata = Diabrotica balteata spray test; settings: Diabrotica balteata, 168 h, after 7 days; for pest or weed control at 500 g/ha: application rate 500 g/ha (=160 μg/cavity); for pest or weed control at 20 g/ha: application rate 20 g/ha; for pest or weed control at 100 g/ha: application rate 100 g/ha
Method: [table] To produce a suitable active compound formulation, 1 part by weight of active compound is dissolved using the stated parts by weight of solvent and made up with water containing an emulsifier concentration of 1000 ppm until the desired concentration is attained. To produce further test concentrations, the formulation is diluted with emulsifier-containing water. Pre-swollen wheat grains (Triticum aestivum) are incubated in a multiwell plate filled with agar and a little water for one day (5 seed grains per cavity). The germinated wheat grains are sprayed with an active compound formulation of the desired concentration. Subsequently, each cavity is infected with 10-20 beetle larvae of Diabrotica balteata. After 7 days, the efficacy in % is determined. 100% means that all wheat plants have grown as in the untreated, uninfected control; 0% means that no wheat plant has grown.

Spodoptera frugiperda = Spodoptera frugiperda spray test (maize leaf discs); settings: Spodoptera frugiperda, foliar, 168 h, application rate 100 g/ha, after 7 days
Method: [table] To produce a suitable active compound formulation, 1 part by weight of active compound is dissolved using the stated parts by weight of solvent and made up with water containing an emulsifier concentration of 1000 ppm until the desired concentration is attained. To produce further test concentrations, the formulation is diluted with emulsifier-containing water. Leaf discs of maize (Zea mays) are sprayed with an active compound formulation of the desired concentration and, after drying, populated with caterpillars of the fall armyworm (Spodoptera frugiperda). After 7 days, the efficacy in % is determined. 100% means that all the caterpillars have been killed; 0% means that no caterpillar has been killed.

Nezara viridula = Nezara viridula spray test; settings: Nezara viridula, 96 h, application rate 500 g/ha, after 4 days
Method: [table] To produce a suitable active compound formulation, 1 part by weight of active compound is dissolved using the stated parts by weight of solvent and made up with water containing an emulsifier concentration of 1000 ppm until the desired concentration is attained. To produce further test concentrations, the formulation is diluted with emulsifier-containing water. Barley plants (Hordeum vulgare) are sprayed with an active compound formulation of the desired concentration and are infected with larvae of the Southern green shield bug (Nezara viridula). After 4 days, the efficacy in % is determined. 100% means that all of the shield bugs have been killed; 0% means that none of the shield bugs have been killed.

Row | SMILES | pest or weed control at 31.25 g/ha (Diabrotica balteata; application rate 31.25 g/ha (=10 μg/cavity), read-out: efficacy) [%] | pest or weed control at 125 g/ha (Diabrotica balteata; application rate 125 g/ha (=40 μg/cavity), read-out: efficacy) [%] | pest or weed control at 500 g/ha (Diabrotica balteata; read-out: efficacy) [%] | pest or weed control at 100 g/ha (Spodoptera frugiperda) [%] | pest or weed control at 20 g/ha (Diabrotica balteata) [%] | pest or weed control at 100 g/ha (Diabrotica balteata) [%] | pest or weed control at 500 g/ha (Nezara viridula) [%]
1 | CCS(=O)(=O)c1ccc(-n2ncn(-c3ccc(F)cc3)c2=O)nc1-c1nc2cc(S(=O)(=O)C(F)(F)Cl)ccc2o1 [Example I-07] | 100 | 100 | 100 | 100 | – | – | –
2 | CCS(=O)(=O)c1ccc(-n2ncn(-c3ccc(Cl)cc3)c2=O)nc1-c1nc2cc(S(=O)(=O)C(F)(F)Cl)ccc2o1 [Example I-08] | – | – | 100 | 100 | 100 | 80 | –
3 | CCS(=O)(=O)c1ccc(-n2ncn(-c3ccc(Br)cc3)c2=O)nc1-c1nc2cc(S(=O)(=O)C(F)(F)Cl)ccc2o1 [Example I-09] | – | – | – | 100 | 80 | – | –
4 | CCS(=O)(=O)c1ccc(-n2ncn(-c3ccc(C#N)cc3)c2=O)nc1-c1nc2cc(S(=O)(=O)C(F)(F)Cl)ccc2o1 [Example I-10] | – | – | 100 | – | 80 | 100 | –
5 | CCS(=O)(=O)c1ccc(-n2ncn(-c3ccc(I)cc3)c2=O)nc1-c1nc2cc(S(=O)(=O)C(F)(F)Cl)ccc2o1 [Example I-11] | – | – | 100 | 100 | – | 100 | –
6 | CCS(=O)(=O)c1ccc(-n2ncn(-c3ccc(I)cc3)c2=O)nc1-c1nc2cc(S(=O)(=O)C(F)(F)F)ccc2o1 [Example I-12] | – | – | 100 | 100 | 100 | 100 | –
7 | CCS(=O)(=O)c1ccc(-n2ncn(-c3cccc(Cl)c3)c2=O)nc1-c1nc2cc(S(=O)(=O)C(F)(F)F)ccc2o1 [Example I-13] | – | – | 100 | 100 | 100 | 100 | –
8 | CCS(=O)(=O)c1ccc(-n2ncn(-c3cccc(Br)c3)c2=O)nc1-c1nc2cc(S(=O)(=O)C(F)(F)F)ccc2o1 [Example I-15] | – | – | 100 | 100 | 100 | 100 | –
9 | CCS(=O)(=O)c1ccc(-n2ncn(-c3ccc(C4(C#N)CC4)cc3)c2=O)nc1-c1nc2cc(S(=O)(=O)C(F)(F)F)ccc2o1 [Example I-17] | – | – | 100 | – | 100 | 100 | –
10 | CCS(=O)(=O)c1ccc(-n2ncn(-c3ccc(Cl)c(Br)c3)c2=O)nc1-c1nc2cc(S(=O)(=O)C(F)(F)F)ccc2o1 [Example I-19] | – | – | – | 100 | 100 | 100 | –
11 | CCS(=O)(=O)c1ccc(-n2ncn(-c3ccc(Br)c(Cl)c3)c2=O)nc1-c1nc2cc(S(=O)(=O)C(F)(F)F)ccc2o1 [Example I-20] | – | – | – | 100 | 100 | 100 | –
12 | CCS(=O)(=O)c1ccc(-n2ncn(-c3ccc(Cl)cc3)c2=O)nc1-c1nc2cc(OC(F)(F)C(F)(F)F)ccc2o1 [Example I-21] | – | – | – | 100 | – | 100 | –
13 | CCS(=O)(=O)c1ccc(-n2ncn(-c3ccc(F)cc3)c2=O)nc1-c1nc2cc(OC(F)(F)C(F)(F)F)ccc2o1 [Example I-22] | – | – | – | 100 | 100 | 100 | –
14 | CCS(=O)(=O)c1ccc(-n2ncn(-c3ccc(Br)cc3)c2=O)nc1-c1nc2cc(OC(F)(F)C(F)(F)F)ccc2o1 [Example I-23] | – | – | – | 100 | – | 100 | –
15 | CCS(=O)(=O)c1ccc(-n2ncn(-c3cccc(F)c3)c2=O)nc1-c1nc2cc(OC(F)(F)C(F)(F)F)ccc2o1 [Example I-24] | – | – | – | 100 | 100 | 100 | –
16 | CCS(=O)(=O)c1ccc(-n2ncn(-c3cccc(Cl)c3)c2=O)nc1-c1nc2cc(OC(F)(F)C(F)(F)F)ccc2o1 [Example I-25] | – | – | – | 100 | 100 | 100 | –

Row | SMILES | pest or weed control at 31.25 g/ha (Diabrotica balteata; application rate 31.25 g/ha (=10 μg/cavity), read-out: efficacy) [%] | pest or weed control at 125 g/ha (Diabrotica balteata; application rate 125 g/ha (=40 μg/cavity), read-out: efficacy) [%] | pest or weed control at 500 g/ha (Diabrotica balteata; read-out: efficacy) [%] | pest or weed control at 100 g/ha (Spodoptera frugiperda) [%] | pest or weed control at 20 g/ha (Diabrotica balteata) [%] | pest or weed control at 100 g/ha (Diabrotica balteata) [%] | pest or weed control at 500 g/ha (Nezara viridula) [%]
17 | CCS(=O)(=O)c1ccc(-n2ncn(-c3cccc(Br)c3)c2=O)nc1-c1nc2cc(OC(F)(F)C(F)(F)F)ccc2o1 [Example I-26] | – | – | – | 100 | 100 | 100 | –
18 | CCS(=O)(=O)c1ccc(-n2ncn(-c3ccc(C#N)c(Cl)c3)c2=O)nc1-c1nc2cc(S(=O)(=O)C(F)(F)F)ccc2o1 [Example I-28] | – | – | – | 100 | 100 | – | –
19 | CCS(=O)(=O)c1ccc(-n2ncn(-c3cccc(C#N)c3)c2=O)nc1-c1nc2cc(OC(F)(F)C(F)(F)F)ccc2o1 [Example I-30] | – | – | – | 100 | 100 | 100 | –
20 | CCS(=O)(=O)c1ccc(-n2ncn(-c3cccc(C4(C#N)CC4)c3)c2=O)nc1-c1nc2cc(OC(F)(F)C(F)(F)F)ccc2o1 [Example I-31] | – | – | – | 100 | 100 | – | –
21 | CCS(=O)(=O)c1ccc(-n2ncn(-c3ccc(F)cc3)c2=O)nc1-c1nc2cc(OC(F)(F)F)ccc2o1 [Example I-33] | – | – | – | – | – | – | 100
22 | CCS(=O)(=O)c1ccc(-n2ncn(-c3ccc(F)cc3)c2=O)nc1-c1nc2cc(C(F)(F)F)ncc2o1 [Example I-35] | – | – | – | – | – | – | 100
23 | CCS(=O)(=O)c1ccc(-n2ncn(-c3ccc(F)cc3)c2=O)nc1-c1nc2cc(C(F)(F)F)ccc2o1 [Example I-36] | – | – | – | – | – | – | 100
24 | CCS(=O)(=O)c1ccc(-n2ncn(C3CCCC3)c2=O)nc1-c1nc2cc(C(F)(F)C(F)(F)F)ccc2o1 [Example I-38] | – | – | – | 100 | – | – | –
25 | CCS(=O)(=O)c1ccc(-n2ncn(-c3cncc(F)c3)c2=O)nc1-c1nc2cc(S(=O)(=O)C(F)(F)F)ccc2o1 [Example I-40] | – | – | – | 100 | – | 100 | –
26 | CCS(=O)(=O)c1ccc(-n2ncn(-c3ccc(Br)cc3)c2=O)nc1-c1nc2cc(C(F)(F)C(F)(F)F)ccc2o1 [Example I-48] | – | – | – | 100 | – | 100 | –
27 | CCS(=O)(=O)c1ccc(-n2ncn(C3CC3)c2=O)nc1-c1nc2cc(OC(F)(F)C(F)(F)F)ccc2o1 [Example I-49] | – | – | – | 100 | 100 | 80 | –
28 | CCS(=O)(=O)c1ccc(-n2ncn(C3CC3)c2=O)nc1-c1nc2cc(C(F)(F)C(F)(F)F)ccc2o1 [Example I-50] | – | – | – | 100 | 100 | 100 | –
29 | CCS(=O)(=O)c1ccc(-n2ncn(-c3ccc(Cl)cc3)c2=O)cc1-c1nc2cc(Br)ccc2o1 [Example I-53] | – | – | – | 100 | – | 100 | –
30 | CCS(=O)(=O)c1ccc(-n2ccn(-c3cccc(C4(C#N)CC4)c3)c2=O)nc1-c1nc2cc(C(F)(F)C(F)(F)F)ccc2o1 [Example I-54] | – | – | – | 100 | 100 | 100 | –
31 | CCS(=O)(=O)c1ccc(-n2ncn(-c3ccc(F)cn3)c2=O)nc1-c1nc2cc(S(=O)(=O)C(F)(F)F)ccc2o1 [Example I-55] | – | – | – | 100 | – | 100 | –
